These results are taken from patent US20250276116A1, “METHODS OF […] DUE TO EXTR[…] OXYGENATION” (Tufts Medical Center, Inc., priority 2021, published 2025).

Entries after “also recorded” stand apart in the source; their conditions may differ.

Experiment [1] deals with anterior ST-segment elevation myocardial infarction. To be noted: IV elamipretide given before reperfusion; cited from earlier work.
The test system of experiment [2] is ischemia-reperfusion injury (AMI, LAD occlusion). Put plainly: Swine AMI model: intracoronary elamipretide before VA-ECMO, reperfusion delayed 30 minutes, then 180 minutes of reperfusion. The class given is in vivo. The method, then: To begin exploring whether stabilizing CL activity can limit myocardial infarct size during VA-ECMO support for AMI, we employed an over-the-wire coronary angioplasty balloon to delivery elamipretide into the area at risk while maintaining occlusion of the LAD. We treated adult male swine with a single IC injection of either elamipretide (0.05 ug/kg/minute IC over 10 minutes) or vehicle prior to initiating VA-ECMO and then delayed coronary reperfusion for 30 minutes, thereby allowing the drug to reach the area at risk and stabilize CL. Elamipretide was continued as an IV infusion (0.05 ug/kg/minute) during 180 minutes of reperfusion. […] Elamipretide dosing was based on prior reports (Kloner et al., J. Am. Heart Assoc. 1(3):e001644, 2012; Gibson et al., Eur. Heart J. 37(16):1296-1303, 2016).

Another experiment concerns cardiolipin. The experiment is described as follows: Mitochondrial cardiolipin in the infarct zone, swine IRI with ECMO / EC-Pella (FIGS. 9C-9D). The class given is in vivo. To be noted: to a similar degree as pre-emptive ECPella. The method, then:
Ischemia-reperfusion injury (IRI) was induced in adult swine via percutaneous occlusion of the left anterior descending artery (LAD) for 90 minutes, followed by activation of either ECMO alone for 30 minutes or EC-Pella for 45 minutes with persistent LAD occlusion. All groups underwent 180 minutes of reperfusion (n=4-6/group). To study whether the sequence of device activation impacts infarct size, we compared activation of ECMO alone for 30 minutes followed by simultaneous Impella CP for 15 minutes (Bailout EC-Pella) versus Impella CP activation for 30 minutes followed by simultaneous ECMO for 15 minutes (Pre-emptive EC-Pella) before reperfusion. LV hemodynamics and ventriculo-arterial (VA) coupling were assessed.
Compared to IRI and ECMO alone, EC-Pella decreased PVA when applied as pre-emptive ECPella but not Bailout ECPella (FIG. 7). Both EC-Pella configurations decreased infarct size (FIG. 8A), increased cardioprotective signaling via the reperfusion injury salvage kinase pathway (FIG. 8B), and reduced apoptosis and pro-apoptotic signaling (FIG. 8C). Pre-emptive, but not bailout, ECPella preserved mitochondrial […] tafazzin levels (FIGS. 9A-B), increased mitochondrial cardiolipin levels (FIG. 9C), and reduced the ratio of immature: mature cardiolipin (MLCL: CL ratio; FIG. 9D) within the infarct zone compared to ECMO alone.

Experiment [3] relates to LV infarct scar after AMI. Put plainly: Late-term outcomes in swine 28 days after AMI with VA-ECMO, with or without cardioprotective drug. The note with it: at 30 days; VA-ECMO + elamipretide vs reperfusion alone or VA-ECMO alone before reperfusion; FIG. 6. The class given is in vivo. How it is done: To explore late-term outcomes after VA-ECMO with or without cardioprotective drug therapy in AMI, we decannulated, recovered, and monitored swine for 28 days after peripheral cannulation for VA-ECMO support. Adult male swine were subjected to coronary occlusion followed by reperfusion alone or VA-ECMO before reperfusion for 180 minutes. In a separate group, swine were treated with a cardioprotective agent before initiation of VA-ECMO with a 30-minute delay to reperfusion. After 28 days, we identified for the first time that compared to reperfusion alone, VA-ECMO increases infarct scar size and impairs LV function after AMI (FIGS. 5A and 5B). […] These findings support our central hypothesis that VA-ECMO promotes LV scar after AMI and further that treatment with a cardioprotective agent reduces LV scar size 30 days after AMI, which may have broad reaching implications for any patient with acute myocardial infarction or patients at risk of developing cardiac impairment while receiving VA-ECMO. Broad groups of patients may be treated using this approach including, e.g., all AMI patients and all patients treated with VA-ECMO. Indications include, for example, cardiogenic shock, heart failure, lung failure, myocarditis, trauma, and arrhythmia. […] (FIG. 6).

Where [4] appears, read: elamipretide plus VA-ECMO, FIG. 4C.

Consider “D-Arg-2′,6′-Dmt-Lys-Phe-NH2 [elamipretide]”, for which the “infarct size in humans (EMBRACE-STEMI Trial)” value in experiment [1] is recorded as “failed to reduce infarct size”. Also, the “reduction of infarct size compared to IRI plus VA-ECMO support” value in experiment [2] (adult male swine, 0.05 ug/kg/minute IC over 10 minutes before VA-ECMO, reperfusion delayed 30 minutes, IV infusion during 180 minutes reperfusion, vs vehicle) amounted to 70%. Moreover, the “reduction of infarct size compared to IRI alone” value in experiment [2] (adult male swine, elamipretide IC before VA-ECMO, reperfusion delayed 30 minutes) is listed as 55%. In addition, the “infarct size compared to reperfusion without VA-ECMO (in words)” value in experiment [2] (elamipretide before initiation of VA-ECMO) was “significantly reduces infarct size”. Further, the “MLCL:CL ratio in the infarct zone” value in experiment [2] (elamipretide plus VA-ECMO, FIG. 4B) is on record as “decreased”. In experiment [2] (setting [4]), the “H202 levels in the infarct zone” value is “decreased” and the “mitochondrial protease activity in the infarct zone” value is “decreased”. Besides, the ETC complex function result in experiment [2] (elamipretide plus VA-ECMO, FIG. 4E) is reported as “improved ETC complex function”. Further, the “infarct size compared to IRI alone, elamipretide without VA-ECMO” value in experiment [2] (elamipretide treatment without VA-ECMO, FIG. 4A) is on record as “failed to reduce infarct size; also recorded: did not reduce infarct size”. Besides, the “mitochondrial cardiolipin levels in the infarct zone” value in the experiment on cardiolipin (FIG. 9C) is “increases cardiolipin”. The “mono-lysl cardiolipin: mature cardiolipin (MLCL:CL) ratio in the infarct zone” value with cardiolipin (FIG. 9D) is recorded as “reduces”. The “infarct (LV) scar size” value in experiment [3] is on record as “reduced infarct scar size; also recorded: can limit LV scar size”.
